Results as given in US12043644B2, “Benzimidazole derivatives, preparation method thereof and use thereof as anti-cancer agent or anti-virus agent comprising the same” (BIOMETRIX TECHNOLOGY INC, priority 2020, dated 2024).

Assays:
[1] = tested on: normal lung cell line MRC-5 and the normal colon CCD-18Co cell line; test: Toxicity test in normal cell line (WST-8 cell viability); type: cell-based; conditions: grade evaluated in comparison with doxorubicin, MRC-5 and CCD-18Co, 0-100 μm, 7 concentrations, 72 hours
Method: The normal lung cell line MRC-5 and the normal colon CCD-18Co cell line were furnished from Korea Cell Line Bank (KCLB, Seoul, Korea) and cultured in culture medium. In a humidified cell culture incubator containing 5% CO2 at 37° C. using DMEM, 10% culture flask, fetal bovine serum (FBS), 0.1 mM MEM non-essential amino acids (NEAA), 2 mM L-glutamine, and 1% penicillin-streptomycin were treated with trypsin every 2-3 days according to the guidelines provided by KCLB, and the cells were sub-cultured. The culture was cultured until it reached 80-90% confluence, and the cells were continuously transferred to a culture flask for a cancer cell line growth inhibition experiment. Normal cell lines (MRC-5 and CCD-18Co) were seeded in about 10000 cells per well in a 96-well plate. After 24 hours, the three compounds shown in Table 1 below were added to each well at 7 concentrations, and incubated for 72 hours. The cell viability and analysis in the normal cell line were performed in the same manner as in Test Example 1, and the results of the toxicity test (72 hours) in the normal cell line are shown in FIG. 4.

[2] = tested on: human lung cancer cell line A549, cervical cancer cell line Hela, and colorectal cancer cell line HT-29; test: Cancer cell line growth inhibition test (WST-8 cell viability); type: cell-based; conditions: grade evaluated in comparison with doxorubicin, 0-100 μm, 7 concentrations, incubated for 72 hours
Method: Human lung cancer cell line A549, cervical cancer cell line Hela, and colorectal cancer cell line HT-29 were furnished from Korea Cell Line Bank (KCLB, Seoul, Korea) and cultured in culture medium. In a humidified cell culture incubator containing 5% CO2 at 37° C. using DMEM, 10% culture flask, fetal bovine serum (FBS), 0.1 mM MEM non-essential amino acids (NEAA), 2 mM L-glutamine, and 1% penicillin-streptomycin were treated with trypsin every 2-3 days according to the guidelines provided by KCLB, and the cells were sub-cultured. The culture was cultured until it reached 80-90% confluence, and the cells were continuously transferred to a culture flask for a cancer cell line growth inhibition experiment. Cancer cell lines to be tested (human lung cancer cell line A549, cervical cancer cell line Hela, and colorectal cancer cell line HT-29) were seeded in about 10000 cells per well in a 96-well plate. […] After incubation, the medium was discarded and the cell viability was measured in each well using a WST-8 cell viability assay kit (Quanti-Max™, BIOMAX) according to the procedure instructed by the manufacturer. The analysis utilized the principle that the dehydrogenase in living cells decomposes tetrazolium salts to produce formazan, through which living cells were quantitatively evaluated. […]

Cl.Nc1nc2ccc(Sc3ccccc3)cc2[nH]1 [Aminophenbendazole, reference compound]
Normal cell line growth inhibition test [1]: A A A
Normal cell line growth inhibition test ([1]; listed as aminophenbendazole): AAA

OC[C@H]1OC(Nc2nc3ccc(Sc4ccccc4)cc3[nH]2)[C@H](O)[C@@H](O)[C@@H]1O (stereo partly shown) [Phenhendazole-glucose conjugate, 6-(phenylthio)-1H-benzoimidazol-2-aminoglucose]
Cancer cell line growth inhibition test [2]: A A A
Cancer cell line growth inhibition test ([2]; listed as phenbendazole-glucose conjugate): AAA
